Here are results for four molecules from ChEMBL document CHEMBL1201862, “PubChem BioAssay data set” (2004).

Molecules are shown by their SMILES. Calls of active or inactive are those of the source.

One may read the AC50 as the midpoint of the concentration-response curve, whichever way the signal moves. Usually EC50 stands for the concentration that produces a half-maximal response.

The target in one assay is Keap1/Nrf2 (Homo sapiens, UniProt Q14145). In words: disruptors of Keap1 binding to Nrf2 peptide – biochemical, fluorescence polarization, cherry-picked samples, dose response (AID 588683). (In general: Polarisation of emitted light reports the rotation of a fluorescent probe.)
The target in assay [1] is T1, Tyrosine-protein phosphatase non-receptor type 7 (Homo sapiens, UniProt P35236).
T1 sequence (P35236 whole entry): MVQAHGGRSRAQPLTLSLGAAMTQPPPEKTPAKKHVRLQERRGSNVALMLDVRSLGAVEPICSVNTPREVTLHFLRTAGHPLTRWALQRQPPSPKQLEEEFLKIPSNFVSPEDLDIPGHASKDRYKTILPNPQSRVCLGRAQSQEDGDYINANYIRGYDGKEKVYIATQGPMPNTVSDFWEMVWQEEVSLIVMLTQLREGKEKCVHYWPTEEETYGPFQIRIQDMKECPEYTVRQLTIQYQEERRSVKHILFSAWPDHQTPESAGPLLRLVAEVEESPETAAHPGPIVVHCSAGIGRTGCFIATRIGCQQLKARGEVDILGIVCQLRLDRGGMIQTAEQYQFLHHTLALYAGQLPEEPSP
In words: HTS HePTP Fluorescent Assay using OMFP substrate for In Vitro dose response studies. [Related pubchem assays (depositor defined):AID1059, AID1077, AID1784, AID2068, AID2085, AID435032, AID521]. The assay is classed as functional.

For assay [2], the target named is T2, Small ubiquitin-related modifier 2 (Homo sapiens, UniProt P61956). In words: SUMO2 binding disruption by SUMO1 hits – biochemical, FRET, human SUMO2, uHTS hits, selectivity assay for SUMO1 interaction inhibitor project, dose response (AID 624384). The assay is classed as functional. To be noted: read-out: IC50_Mean.
Assay [3] addresses T3, Probable nicotinate-nucleotide adenylyltransferase (Staphylococcus aureus (strain N315), UniProt P65502). The assay is classed as functional, Staphylococcus aureus subsp. aureus N315.
Assay [4] has as its target Voltage-gated N-type calcium channel alpha-1B subunit/Amyloid beta A4 precursor protein-binding family A member 1 (Homo sapiens, UniProt Q00975+Q02410). The assay is classed as protein assay.
Assay [5] concerns the target Eukaryotic translation initiation factor 4E (Mus musculus, UniProt P63073). The experiment in a line: blockers of eIF4G binding by eIF4E – biochemical, TR-FRET, dose response (AID 855).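 Note: potency for disrupting eIF4E binding to eIF4GI seen as loss of FRET.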 The assay is classed as functional. A general note: Time-resolved FRET reads energy transfer from a long-lived donor to a nearby acceptor.
For assay [6], the target named is T3, Probable nicotinate-nucleotide adenylyltransferase. The assay is classed as functional, Staphylococcus aureus subsp. aureus N315. To be noted: read-out: IC50_Mean.
For assay [7], the target named is T2, Small ubiquitin-related modifier 2. In words: disruption of SUMO2 interaction with SIM peptide – biochemical, fluorescence polarization, uHTS hits, selectivity assay for SUMO1 interaction inhibitor project, dose response (AID 624385). The assay is classed as functional. To be noted: read-out: IC50_Mean.
For assay [8], the target named is T4, Beta-galactosidase (Escherichia coli, UniProt Q8VNN2). The experiment in a line: PubChem AID 485352. The assay is classed as functional.
The target of another assay is Beta Lactamase (Pseudomonas aeruginosa, UniProt Q932Y6). The experiment in a line: BLA reporter interference, concentration series – BLA reporter cells, FRET fluorescence, artefact control for TLR9-MyD88 binding inhibitor project, dose response (AID 588341).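 Note: cell based assay in CHO-K1 cells stably expressing beta-lactamase.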 The assay is classed as cell-based.
Assay [9] has as its system BJ. In words: growth inhibition of engineered Ras-driven BJ cells – cell-based, alamar blue fluorescence, cherrypicked samples, dose response (AID 2631).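 Note: confirmatory dose-response assay in RAS-dependent BJ fibroblasts engineered with TERT, LT and ST, with cytotoxicity read by fluorescence.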 To be noted: Homo sapiens. The assay is classed as functional. A general note: The colour change of resazurin is a common sign of viable cells or microbes.
Assay [10] addresses T4, Beta-galactosidase. The assay is classed as functional.
Assay [11] in a line: non-specific 3'UTR reporter inhibition in Clone20-Shn3RL – cell-based, Renilla luciferase, cherry-picked, counter-screen for Shn3 inhibitor project, dose response (AID 624133). The assay is classed as functional.
Assay [12] in a line: reduction of Shn3 3'UTR-driven luciferase in osteoblasts – cell-based, Clone20 osteoblasts, firefly luciferase, cherry-picked, dose response (AID 624132).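 Note: firefly luciferase luminescence from reporter carrying the Shn3 3'UTR in osteoblasts.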 The assay is classed as functional.
A further assay deals with CHO. In words: CHO cell viability loss, potency – luminescence, cytotoxicity control for TLR9-MyD88 binding inhibitor project, dose response (AID 588339).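 Note: CHO cells stably coexpressing TLR9 and MyD88 fusions from primary screen; compound exposure lasted 48 hours before viability readout.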 The assay is classed as functional, cell-based, hamster. To be noted: Cricetulus griseus.
Assay [13] deals with BJ. The experiment in a line: cells. The assay is classed as functional, cell-based. To be noted: Homo sapiens.
Assay [14] has as its target T5, Rac GTPase-activating protein 1 (Homo sapiens, UniProt Q9H0H5).
T5 sequence (Q9H0H5 whole entry): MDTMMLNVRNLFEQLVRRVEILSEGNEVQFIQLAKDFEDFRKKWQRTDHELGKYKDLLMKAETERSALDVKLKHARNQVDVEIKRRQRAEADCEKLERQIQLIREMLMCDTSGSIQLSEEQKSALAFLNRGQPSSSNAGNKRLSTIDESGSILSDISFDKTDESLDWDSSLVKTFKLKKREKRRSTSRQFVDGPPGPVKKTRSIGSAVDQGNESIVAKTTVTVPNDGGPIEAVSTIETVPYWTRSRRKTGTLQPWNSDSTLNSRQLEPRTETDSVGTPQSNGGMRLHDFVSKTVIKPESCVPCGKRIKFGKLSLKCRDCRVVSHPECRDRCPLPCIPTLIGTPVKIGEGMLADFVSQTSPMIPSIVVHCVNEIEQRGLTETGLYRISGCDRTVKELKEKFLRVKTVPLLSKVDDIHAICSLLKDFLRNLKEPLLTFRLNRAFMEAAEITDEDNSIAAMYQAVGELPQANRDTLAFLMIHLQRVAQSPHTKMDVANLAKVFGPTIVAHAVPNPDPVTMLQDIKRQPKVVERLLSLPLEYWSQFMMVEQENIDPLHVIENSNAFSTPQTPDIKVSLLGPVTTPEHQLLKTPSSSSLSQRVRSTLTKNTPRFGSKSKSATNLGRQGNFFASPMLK
The experiment in a line: blockers of MgcRacGAP-driven Rac1 GTP hydrolysis – biochemical, ADP Hunter fluorescence, primary and confirmatory, confirmation (AID 624330). The assay is classed as functional.

Another assay has as its target Genome polyprotein (dengue virus type 2, UniProt P29990). The experiment in a line: flavivirus cap methylation enzyme inhibition – biochemical, confirmation dose response, primary screen (AID 588689). The assay is classed as functional.

T3 sequence (P65502 whole entry): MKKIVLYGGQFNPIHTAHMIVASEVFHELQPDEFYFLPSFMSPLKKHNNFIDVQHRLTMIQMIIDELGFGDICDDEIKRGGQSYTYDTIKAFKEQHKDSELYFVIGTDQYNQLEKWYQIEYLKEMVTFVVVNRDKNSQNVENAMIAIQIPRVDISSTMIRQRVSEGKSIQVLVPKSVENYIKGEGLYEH
T4 sequence (Q8VNN2 whole entry): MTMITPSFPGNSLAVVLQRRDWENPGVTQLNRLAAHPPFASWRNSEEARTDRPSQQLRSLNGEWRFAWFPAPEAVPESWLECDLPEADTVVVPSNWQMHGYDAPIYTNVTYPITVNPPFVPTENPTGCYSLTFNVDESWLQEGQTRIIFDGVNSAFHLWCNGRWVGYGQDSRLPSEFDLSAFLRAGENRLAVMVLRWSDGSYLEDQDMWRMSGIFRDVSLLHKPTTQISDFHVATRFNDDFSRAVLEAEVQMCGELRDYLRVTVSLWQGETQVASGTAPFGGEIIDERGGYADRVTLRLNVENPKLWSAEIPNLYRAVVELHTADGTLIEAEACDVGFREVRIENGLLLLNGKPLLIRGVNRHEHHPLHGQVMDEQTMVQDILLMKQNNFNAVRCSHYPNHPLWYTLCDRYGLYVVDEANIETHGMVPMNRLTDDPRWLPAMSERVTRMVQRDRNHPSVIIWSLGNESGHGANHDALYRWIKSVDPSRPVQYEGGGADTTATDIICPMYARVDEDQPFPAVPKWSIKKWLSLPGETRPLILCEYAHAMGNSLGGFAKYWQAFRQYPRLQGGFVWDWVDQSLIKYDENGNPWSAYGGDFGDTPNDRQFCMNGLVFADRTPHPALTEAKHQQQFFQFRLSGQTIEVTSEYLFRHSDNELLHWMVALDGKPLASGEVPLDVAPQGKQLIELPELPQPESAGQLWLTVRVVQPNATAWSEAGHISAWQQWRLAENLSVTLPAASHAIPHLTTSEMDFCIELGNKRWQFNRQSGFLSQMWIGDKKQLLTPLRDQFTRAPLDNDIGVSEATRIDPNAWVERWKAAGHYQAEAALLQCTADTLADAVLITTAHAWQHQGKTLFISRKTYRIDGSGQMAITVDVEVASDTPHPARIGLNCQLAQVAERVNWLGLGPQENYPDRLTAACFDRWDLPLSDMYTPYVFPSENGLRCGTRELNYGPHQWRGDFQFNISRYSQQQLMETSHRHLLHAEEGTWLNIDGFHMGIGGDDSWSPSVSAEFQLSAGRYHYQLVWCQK
T2 sequence (P61956 whole entry): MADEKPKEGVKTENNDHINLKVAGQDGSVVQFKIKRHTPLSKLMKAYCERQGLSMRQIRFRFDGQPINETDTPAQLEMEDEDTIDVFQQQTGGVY
Sequence of Keap1/Nrf2 (Q16236 whole entry): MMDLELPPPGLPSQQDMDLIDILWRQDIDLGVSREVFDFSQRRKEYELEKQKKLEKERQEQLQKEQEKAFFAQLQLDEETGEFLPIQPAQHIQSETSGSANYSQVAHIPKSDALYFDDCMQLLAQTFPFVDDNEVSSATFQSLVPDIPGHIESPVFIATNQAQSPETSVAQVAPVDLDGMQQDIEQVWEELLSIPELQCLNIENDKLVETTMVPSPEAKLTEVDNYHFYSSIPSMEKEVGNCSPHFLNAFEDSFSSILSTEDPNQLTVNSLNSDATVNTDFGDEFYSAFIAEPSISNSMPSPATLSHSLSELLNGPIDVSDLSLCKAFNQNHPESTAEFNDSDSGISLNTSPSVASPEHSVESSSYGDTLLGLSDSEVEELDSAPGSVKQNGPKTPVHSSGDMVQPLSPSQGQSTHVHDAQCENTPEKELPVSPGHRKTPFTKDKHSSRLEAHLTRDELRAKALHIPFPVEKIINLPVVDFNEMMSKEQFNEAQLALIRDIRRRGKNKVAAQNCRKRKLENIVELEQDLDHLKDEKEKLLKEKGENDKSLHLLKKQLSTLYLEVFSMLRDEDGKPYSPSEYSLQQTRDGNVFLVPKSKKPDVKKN
Sequence of Keap1/Nrf2 (Q14145 whole entry): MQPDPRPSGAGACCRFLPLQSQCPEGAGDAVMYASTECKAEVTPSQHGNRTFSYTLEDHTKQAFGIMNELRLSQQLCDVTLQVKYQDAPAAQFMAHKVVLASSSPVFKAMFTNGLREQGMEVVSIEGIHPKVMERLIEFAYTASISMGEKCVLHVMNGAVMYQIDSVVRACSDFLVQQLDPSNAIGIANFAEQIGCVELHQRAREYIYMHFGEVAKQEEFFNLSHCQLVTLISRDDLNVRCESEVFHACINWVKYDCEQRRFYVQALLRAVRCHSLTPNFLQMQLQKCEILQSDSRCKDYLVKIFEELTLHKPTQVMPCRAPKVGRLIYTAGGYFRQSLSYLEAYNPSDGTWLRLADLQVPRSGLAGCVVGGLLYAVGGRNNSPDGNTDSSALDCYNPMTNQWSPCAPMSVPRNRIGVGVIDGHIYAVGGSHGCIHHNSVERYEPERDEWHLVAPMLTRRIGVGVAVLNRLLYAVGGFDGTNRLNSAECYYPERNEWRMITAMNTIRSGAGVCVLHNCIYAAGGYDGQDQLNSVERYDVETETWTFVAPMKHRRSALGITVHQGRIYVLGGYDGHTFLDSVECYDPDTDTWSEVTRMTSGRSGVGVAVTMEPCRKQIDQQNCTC
Sequence of Beta Lactamase (Q932Y6 whole entry): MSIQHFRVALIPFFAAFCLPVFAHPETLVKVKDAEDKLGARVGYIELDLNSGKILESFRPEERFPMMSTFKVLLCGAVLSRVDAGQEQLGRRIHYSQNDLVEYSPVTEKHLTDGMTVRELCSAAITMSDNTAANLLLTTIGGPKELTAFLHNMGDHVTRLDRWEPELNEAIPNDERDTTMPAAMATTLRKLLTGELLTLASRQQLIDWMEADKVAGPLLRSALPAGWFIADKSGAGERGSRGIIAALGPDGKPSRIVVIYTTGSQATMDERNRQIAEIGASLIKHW
Sequence of Genome polyprotein (P29990 2492-3391 limits assumed): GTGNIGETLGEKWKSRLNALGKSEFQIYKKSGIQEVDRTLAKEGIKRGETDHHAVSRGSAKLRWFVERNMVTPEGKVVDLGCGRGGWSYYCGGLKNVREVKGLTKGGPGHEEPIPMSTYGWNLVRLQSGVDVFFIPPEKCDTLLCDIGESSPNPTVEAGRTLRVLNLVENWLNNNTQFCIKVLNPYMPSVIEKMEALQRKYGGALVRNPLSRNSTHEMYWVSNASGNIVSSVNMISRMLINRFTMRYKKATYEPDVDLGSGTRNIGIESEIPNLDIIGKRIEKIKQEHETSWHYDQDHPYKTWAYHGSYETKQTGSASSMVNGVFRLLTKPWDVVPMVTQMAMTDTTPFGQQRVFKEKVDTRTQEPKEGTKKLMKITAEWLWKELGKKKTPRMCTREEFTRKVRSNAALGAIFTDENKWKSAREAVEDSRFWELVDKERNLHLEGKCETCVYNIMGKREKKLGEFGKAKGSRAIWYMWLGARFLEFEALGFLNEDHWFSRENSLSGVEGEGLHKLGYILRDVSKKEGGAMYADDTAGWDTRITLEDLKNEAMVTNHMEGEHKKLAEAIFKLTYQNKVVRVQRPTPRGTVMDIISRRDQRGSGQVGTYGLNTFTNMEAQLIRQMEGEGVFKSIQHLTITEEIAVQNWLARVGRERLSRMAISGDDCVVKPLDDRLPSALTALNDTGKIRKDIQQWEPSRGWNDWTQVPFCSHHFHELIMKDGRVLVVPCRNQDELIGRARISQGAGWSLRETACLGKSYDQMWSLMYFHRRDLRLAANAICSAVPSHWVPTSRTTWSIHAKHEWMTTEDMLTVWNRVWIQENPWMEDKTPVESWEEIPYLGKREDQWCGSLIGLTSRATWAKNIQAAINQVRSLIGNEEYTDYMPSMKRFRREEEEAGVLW
Sequence of Eukaryotic translation initiation factor 4E (P63073 whole entry): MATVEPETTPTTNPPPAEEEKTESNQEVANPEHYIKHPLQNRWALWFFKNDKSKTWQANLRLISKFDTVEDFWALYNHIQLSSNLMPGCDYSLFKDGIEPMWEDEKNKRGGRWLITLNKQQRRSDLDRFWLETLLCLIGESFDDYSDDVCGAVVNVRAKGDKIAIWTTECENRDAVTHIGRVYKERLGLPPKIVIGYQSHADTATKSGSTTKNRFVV

For `CCN(CC)CCN1C(=O)c2cccc3cc(N)cc(c23)C1=O`, the AC50 on Keap1/Nrf2 is > 52 µM (inactive).
`O=C(O)c1cccc(-n2cccc2/C=C2/NC(=O)N(c3ccc(Cl)cc3)C2=O)c1`: the IC50 in [1] is 6.06 µM (active); in assay [2], 0.752 µM (active); in [3], 11.1 µM (active); in assay [4], 9.85 µM (active); in [5] it was 4.43 µM (active); in assay [6], 27.1 µM (active). The IC50 in assay [7] is 66 µM (inactive).
`C=C1C(=O)O[C@@H]2C[C@@H](C)[C@@H]3C=CC(=O)[C@@]3(C)[C@@H](OC(=O)CC(=O)O[C@H]3[C@@H]4C(=C)C(=O)O[C@@H]4C[C@@H](C)[C@@H]4C=CC(=O)[C@]43C)[C@H]12`: the EC50 was > 40 µM (inactive) on Beta-galactosidase [8], 0.0525 µM (active) in the assay with BJ [9], > 31.5 µM (inactive) at Beta-galactosidase [10] and 5.4 µM (inconclusive) in the assay on BJ [13]. Also, the values for the IC50 at Beta Lactamase and with CHO were 17.9 µM (inactive) and 0.147 µM (active), respectively. The concentration at half-maximal activity (AC50) in assay [11] is 0.28 µM (active); in [12] it was 0.292 µM (active).
On to `O=S(=O)(O)c1cc(Cl)cc(N=Nc2ccc(O)cc2O)c1O`, for which the IC50 is 83.7 µM (active) in [14] and 58.3 µM (active) on Genome polyprotein.
